Patent US11576945B2, “Treatment for ischemic stroke” (CHS Pharma Inc., priority 2018, dated 2023)

Columns and labels:
PC-12 cells [1] = experiment: ATP assay of cell viability, PC-12 cells under hypoxia/reoxygenation; assay type: cell-based; details: 5-100 μM carbamathione; hypoxia and reoxygenation; without treatment about 47% of control; FIG. 9
Procedure: (§1) In another set of experiments, the effect of carbamathione on cell viability and expression of various biomarkers in PCT-12 cells exposed to hypoxia/reoxygenation was evaluated. Referring to FIG. 9, PC-12 cells were exposed to hypoxia and reoxygenation in the presence or in the absence of 5-100 μM carbamathione. […] Referring to FIGS. 13 and 14, GRP 78, CHOP, Caspase-12, and cleaved Caspase-12 expression induced by hypoxia-reoxygenation were each inhibited by carbamathione.

[2] = tested on: bilateral carotid artery occlusion (BCAO) mice; experiment: Corner test in BCAO stroke model; assay type: in vivo; details: 14 mg/kg s.c. daily; up to 4 days after BCAO; untreated BCAO ~90% to one side; FIG. 21
Procedure: For the bilateral carotid artery occlusion assay (BCAO) experiments, male Swiss Webster mice (20 weeks of age) were obtained from Charles River laboratory. The mice were allowed access to water only and kept fasting overnight before surgery. Mice were anesthetized with ketamine (100 mg/kg, i.p.) plus xylazine (10 mg/kg, i.p.). For induction of anesthesia, mice were exposed to a gaseous mixture consisting of 30% oxygen, 70% N2O and 0.5% isoflurane using a vaporizer. For maintenance of anesthesia, isoflurane concentration was used to 0.5%. Mice were breathing spontaneously via breathing mask throughout the surgical procedure. A rectal temperature probe was inserted. […]
(§2) While anesthesia was maintained as described above, each mouse was placed on its back, and its tail and paws were fixed to the heating pad using adhesive tape. […] The body temperature was monitored and maintained at 37° C.±0.5° C. during the immediate postoperative period until the animals recovered fully from anesthesia.
The Corner test, which determines an animal's asymmetric direction of turning when encountering a corner, is used as an indicator of brain injury. […] Each mouse took part in ten trials, after which we calculated the percentage of turns to each side, recording only those turns involving full rearing along one of the boards. […]

[3] = tested on: bilateral carotid artery occlusion (BCAO) mice; experiment: Locomotor activity on force-plate actometer in BCAO stroke model; assay type: in vivo; details: 14 mg/kg s.c. daily; 4 days after BCAO; FIG. 22
Procedure: (§3) For the bilateral carotid artery occlusion assay (BCAO) experiments, male Swiss Webster mice (20 weeks of age) were obtained from Charles River laboratory. The mice were allowed access to water only and kept fasting overnight before surgery. Mice were anesthetized with ketamine (100 mg/kg, i.p.) plus xylazine (10 mg/kg, i.p.). For induction of anesthesia, mice were exposed to a gaseous mixture consisting of 30% oxygen, 70% N2O and 0.5% isoflurane using a vaporizer. For maintenance of anesthesia, isoflurane concentration was used to 0.5%. Mice were breathing spontaneously via breathing mask throughout the surgical procedure. A rectal temperature probe was inserted. During surgery, mice were resting on a thermostat-controlled heating pad, ensuring a constant core temperature of 37.0±0.5° C.
While anesthesia was maintained as described above, each mouse was placed on its back, and its tail and paws were fixed to the heating pad using adhesive tape. A sagittal ventral midline incision (˜1 cm length) was performed. Both common carotid arteries (CCAs) were isolated, freed of nerve fibers, and occluded using non-traumatic aneurysm clips. Complete interruption of blood flow was confirmed under an operating microscope. […] The body temperature was monitored and maintained at 37° C.±0.5° C. during the immediate postoperative period until the animals recovered fully from anesthesia. […]

[4] = tested on: bilateral carotid artery occlusion (BCAO) mice; experiment: Brain infarct by TTC staining in BCAO stroke model; assay type: in vivo; details: 14 mg/kg subcutaneously 30 min after occlusion
Procedure: as §3
as §2, with “tape. A sagittal ventral midline incision (˜1 cm length) was performed.” for “tape.”, “anesthesia. […]” for “anesthesia.”
Mice were euthanized 4 days after surgery. […] To assess lesion volume, TTC-stained slices (2, 4, 6, 8, and 10 mm from the frontal pole) were scanned using a scanner and analyzed by Image-J analysis software. […]

PC-12 cells [5] = experiment: Western blot of stress/apoptosis markers in PC-12 cells under hypoxia/reoxygenation; assay type: cell-based
Procedure: For the Western blot assays, animals were deeply anesthetized by isoflurane (Phoenix) and decapitated, and then brains were rapidly removed. After sacrifice, the while the brain was on ice, the left hemisphere and the right hemisphere (identical parts) were quickly dissected on dry ice and homogenized in Lysis buffer consisting of 50 mM Tris-HCl, 150 mM NaCl, 2 mM EDTA, pH 8.0, 1% Triton-X-100, 1:100 dilution of mammalian protease inhibitors (Sigma-Aldrich, MO, USA) and protease inhibitor for immunoblotting. Protein concentrations of each sample solution were determined with a Bradford protein assay, and samples were stored at −80° C. until use. Protein samples were separated by 12% sodium dodecyl sulfate-polyacrylamide gel electrophoresis and transferred onto nitrocellulose membranes. Western blot was performed using the following primary antibodies overnight: abcam: GRP 78, HSP70, HSP 27, activating transcription factor 4 (ATF4), and X-box-binding protein 1 (XBP-1) (1:500); Cell Signaling: GAPDH (1:3,000), Bax, BCL2 (1:1,000), AKT, phosphorylated AKT (p-AKT); Santa Cruz: CHOP/GADD153); Imgenex: ATF6 (1:1,500). The membranes were washed three times with Tris-buffered saline containing 0.1% Tween-20 (TBS-T) and incubated with secondary antibodies for 1 hour at room temperature. Secondary antibodies used were goat IRDye 800-conjugated anti-rabbit (1:15,000) and IRDye 680 conjugated anti-mouse (1:15,000) antibodies (LI-COR Biosciences, Lincoln, Nebr., USA). Fluorescent signals were detected with a LI-COR Odyssey Fc system and the images were quantified with the provided either Image Studio 2.0 software or image J software.
as §1

[6] = tested on: bilateral carotid artery occlusion (BCAO) mice; experiment: Western blot of brain tissue in BCAO stroke model; assay type: in vivo
Procedure: as §3
While anesthesia was maintained as described above, each mouse was placed on its back, and its tail and paws were fixed to the heating pad using adhesive tape. A sagittal ventral midline incision (˜1 cm length) was performed. Both common carotid arteries (CCAs) were isolated, freed of nerve fibers, and occluded using non-traumatic aneurysm clips. Complete interruption of blood flow was confirmed under an operating microscope. After 30 min of ischemia, the aneurysm clips were removed from both CCAs. Restoration of blood flow (reoxygenation) was observed directly under the microscope. Sham-operated controls were subjected to the same surgical procedures except that CCAs were not occluded. The body temperature was monitored and maintained at 37° C.±0.5° C. during the immediate postoperative period until the animals recovered fully from anesthesia.
Animals were randomly assigned for sham, control, and experimental groups. Thereafter, in experimental group (carbamathione treated group, N=9), carbamathione (14 mg/kg in 0.3 mL saline 0.9%) was injected subcutaneously 30 min after occlusion and continued daily until the animal was sacrificed. In control groups (vehicle-treated group, N=9), vehicle (0.3 ml saline 0.9%) was injected subcutaneously 30 min after occlusion. Sham-operated group (N=6) received the same surgical procedure without occlusion of common carotid artery. After surgery, animals were allowed to recover from the anesthesia, and given food and water ad libitum. The animals were daily examined for body temperature and weight, and those who had body temperature more than 39° C. after 24 hour were excluded from the experiment.
For the Western blot assays, animals were deeply anesthetized by isoflurane (Phoenix) and decapitated, and then brains were rapidly removed. […] Protein concentrations of each sample solution were determined with a Bradford protein assay, and samples were stored at −80° C. until use. […]

PC-12 cells [7] = details: 10 mM glutamate for 24 hours
Procedure: PC-12 cells (purchased from ATCC, Manassas, Va., USA) were cultured in a petri dish for one week prior to use. PC-12 cells were maintained at 37° C./5% CO2 in an incubator, and fed every other day using F12-K medium supplemented with 5% (v/v) fetal bovine serum (FBS), 10% (v/v) heat-inactivated horse serum (HS) and 1% (v/v) penicillin-streptomycin solution. Experiments were performed on undifferentiated cells plated in 96-well plates at a density of approximately 5×10^4 cells/ml for the ATP assay. On first day of use, cells were harvested by first adding 2 mL trypsin and incubated for 15 minutes. 2 mL fresh medium was then used as a wash and cells were spun, and re-suspended. Cell density was determined by cell counting using a hemocytometer and a tissue culture microscope. After cell density was determined, 96-well plates and 6-well plates were plated with 2.5×10^4 cells per well and 5×10^5 cells per well for the adenosine 5′-triphosphate (ATP) assay and Western blot analysis, respectively.
Cell cultures were preincubated with 0.5 μM to 500 μM concentration of carbamathione for one hour. […] For the ATP assay, ATP solution was added to each well, and cells were incubated for 10 min after which time the amount of ATP was quantified through a luciferase reaction. The luminescence intensity was determined using a luminometer with lysates in a standard opaque-walled multi-well plate. […]

[8] = after 4 days, compared to vehicle treated group, FIG. 23
[9] = day 4 post BCAO, compared with vehicle treated group, FIG. 24

Compound: CCN(CC)C(=O)SC[C@H](NC(=O)CC[C@H](N)C(=O)O)C(=O)NCC(=O)O [carbamathione, S—(N,N-diethylcarbamoyl)glutathione]
- cell viability (ATP levels) (PC-12 cells [1]): dramatically increased the cell viability
- asymmetric turning in Corner test [2]: not significant differently from that seen in the sham-operated mice
- locomotor activity [3]: statistically significantly different than BCAO with vehicle group
- infarct size (TTC staining) ([4]; daily, 4 days after surgery, 2, 4, 6, 8, 10 mm from frontal pole, FIG. 20): noticeably reduced
- volume of the lesion ([4]; sections 2, 4, 6, 8 and 10 mm, 30 min transient BCAO, FIG. 20c): markedly reduced
- CHOP expression induced by hypoxia-reoxygenation (PC-12 cells [5]; FIG. 13): inhibited
- GRP 78 expression induced by hypoxia-reoxygenation (PC-12 cells [5]; FIG. 13): inhibited
- Caspase-12 expression induced by hypoxia-reoxygenation (PC-12 cells [5]; FIG. 14): inhibited
- cleaved Caspase-12 expression induced by hypoxia-reoxygenation (PC-12 cells [5]; FIG. 14): inhibited
- ATF4 expression induced by hypoxia-reoxygenation (PC-12 cells [5]; FIG. 15): inhibited
- ATF6 expression induced by hypoxia-reoxygenation (PC-12 cells [5]; FIG. 16): inhibited
- XBP1 expression induced by hypoxia-reoxygenation (PC-12 cells [5]; FIG. 17): inhibited
- Bax expression (upregulation induced by hypoxia/reoxygenation) (PC-12 cells [5]; FIG. 18): decreased the upregulation
- Bcl2 expression (downregulation induced by hypoxia/reoxygenation) (PC-12 cells [5]; FIG. 18): increased the downregulation
- decrease in the Bcl2:Bax ratio induced by hypoxia/reoxygenation (PC-12 cells [5]; FIG. 18): inhibited
- cleaved Caspase-3 expression (upregulation induced by hypoxia/reoxygenation) (PC-12 cells [5]; FIG. 19): decreased the upregulation
- AKT expression (PC-12 cells [5]; hypoxia-reoxygenation, FIG. 12): no changes
- Hsp 27 expression (PC-12 cells [5]; hypoxia-reoxygenation, compared to hypoxia-reoxygenation alone, FIG. 10): greater over-expression
- Hsp 70 expression (PC-12 cells [5]; hypoxia-reoxygenation, compared to hypoxia-reoxygenation alone, FIG. 11): greater over-expression
- P-AKT expression (PC-12 cells [5]; hypoxia-reoxygenation, compared to hypoxia-reoxygenation alone, FIG. 12): up-regulated
- CHOP expression in the brains [6, 8]: decreased dramatically
- GRP 78 expression in the brains [6, 8]: decreased dramatically
- Bax expression in the brains [6, 9]: decreased expression
- Bcl2 expression in the brains [6, 9]: significantly increased expression

Compound: N[C@@H](CCC(=O)O)C(=O)O [glutamate]
- survival of PC-12 cells (ATP assay) (PC-12 cells [7]): about 45%
